Results taken from article PMC11823609, “Advancements in the fight against globally distributed OXA-48 carbapenemase: evaluating the new generation of carbapenemase inhibitors” (Antimicrobial Agents and Chemotherapy, 2025).
In brackets after ≈: the same amount, converted by molar mass. Like-named read-outs stand apart in the source and are kept apart here.

Legend:
E. coli TG1 = test: microbe, parasite or virus in culture; assay type: cell-based; settings: Escherichia coli
Procedure: (§1) The MICs of each of the individual compounds (antibiotics or inhibitors) were also determined. The MICs were determined for the E. coli isogenic expressing OXA-48 (and both OXA-48 and CTX-M-14) to assess their activity against the carbapenemase; MICs were also determined for the 18 Enterobacterales clinical isolates in order to evaluate the new inhibitors against also their resistance concomitant mechanisms. The MICs were determined in triplicate experiments, and the EUCAST 13.0 clinical breakpoints were followed (http://www.eucast.org/clinical_breakpoints).
(§2) For comparative evaluation of the activity of each inhibitor alone against the carbapenemase OXA-48, all inhibitors (at 4 mg/L) were tested in the presence of a carbapenem (ertapenem, adequate substrate) and a cephalosporin (ceftazidime, poor substrate) as reporter substrates. This prevented any possible masking effect produced by the different partner antibiotics. These assays were also performed with isogenic transformants and clinical isolates.

E. coli TG1 (OXA-48) = test: microbe, parasite or virus in culture; assay type: cell-based, Escherichia coli
Procedure: as §1, §2

[1] = system: E. coli TG1 and HB4 transformants; test: MIC summary over E. coli transformants; assay type: cell-based, Escherichia coli; settings: for effect of ertapenem/BLI on bacterial growth / decrease of ertapenem MIC with BLI: OXA-48-producing E. coli hosts, BLI 4 mg/L; for MICs of inhibitor alone (range over strains): TG1 and HB4 E. coli
Source text: The E. coli HB4 strain was used to gain a more complete perspective, by evaluating the involvement in resistance of a low permeability background with the carbapenemase OXA-48, as well as coproduction of an ESBL and the carbapenemase; thus, the ESBL CTX-M-14 and OXA-48 were cloned together and separately into E. coli HB4. The characteristics of these strains and transformants are summarized in Table S1, and the cloning procedures are outlined in the supplemental methods.
as §1, §2

[2] = system: OXA-48-producing Enterobacterales clinical isolates; test: MIC summary over clinical isolates; assay type: cell-based
Procedure: The efficacy of these new BLIs was also evaluated against 18 genetically diverse WGS-characterized collection of OXA-48-positive Enterobacterales recovered as part of the Carbapenem-resistant Enterobacterales Genome Database Project (https://genomes.cnag.cat/incredble) listed in Table S2 ([13]). Combinations of clinical isolates (five pairs of Klebsiella pneumoniae, two pairs of Enterobacter cloacae, and two pairs of E. coli) were chosen for analysis: (i) nine strains carrying ESBLs; and (ii) nine strains (genetically closer available strains) without ESBLs.
as §1, §2

OXA-48 [3] = target: T1, OXA-48 (Klebsiella pneumoniae, UniProt Q6XEC0); test: Steady-state inhibition constant (Ki app), nitrocefin reporter; assay type: biochemical; parameters: These primers amplified the blaOXA-48 gene without the signal peptide; GST (glutathione S-transferase, pGEX-6P-1) (N, cleaved yes); made in house; host or cells: E. coli BL21; settings: nitrocefin 300 µM reporter, 25 °C, pH 7.4
Procedure: (§3) OXA-48 was cloned, produced, and purified following the procedures described in the supplemental methods. The steady-state inhibition constants (Ki app) and kinetics of inhibition (such as k2/K , koff, Kd, and tn) were determined following previously established protocols, are also outlined in the supplemental methods.
(§4) Ki app serves as an equilibrium constant, calculable from […] conditions and indicates the formation of the enzyme acyl E-S complex. […] Plotting the inverse initial velocities (1/V0) against inhibitory concentrations ([I]) facilitated fitting the data to a linear equation. The intersection, divided by the slope of the line, was defined as the observed Ki app.
Ki app (corrected)= Ki app (observed) / [ 1+ ([S]/KmNFC)] (2)

OXA-48 [4] = target: T1, OXA-48; test: Inhibition efficiency / onset of acylation (k2/K), nitrocefin reporter; assay type: biochemical; parameters: These primers amplified the blaOXA-48 gene without the signal peptide; GST (glutathione S-transferase, pGEX-6P-1) (N, cleaved yes); made in house; host or cells: E. coli BL21; settings: for k2/K: nitrocefin reporter; for kinact/KI: pH 7.4, read-out: k2/K, nitrocefin reporter
Procedure: as §3, §4
k2/K = k2/kobs × [([S]/Km NCF) + 1] (3)

OXA-48 [5] = target: T1, OXA-48; test: Partition ratio / turnover number (tn), I/E for >90% inhibition; assay type: biochemical; parameters: These primers amplified the blaOXA-48 gene without the signal peptide; GST (glutathione S-transferase, pGEX-6P-1) (N, cleaved yes); made in house; host or cells: E. coli BL21; settings: 15 min incubation, 500 nM enzyme
Procedure: as §3
The evaluation involved exposure to increasing concentrations of inhibitors plus 500 nM of enzyme, at different molar I/E ratios.

OXA-48 [6] = target: T1, OXA-48; test: Dissociation rate (koff) by jump dilution; t1/2 and Kd; assay type: biochemical; parameters: These primers amplified the blaOXA-48 gene without the signal peptide; GST (glutathione S-transferase, pGEX-6P-1) (N, cleaved yes); made in house; host or cells: E. coli BL21; settings: for Kd: koff/kon; for residence time: read-out: t1/2 (residence time)
Procedure: as §3
The dissociation rate constant (koff) was determined using a “jump dilution” method in which OXA-48 enzyme activity was monitored over time as the BLI dissociates. […] Subsequently, the reaction mixture was diluted 10,000-fold dilution in the reaction buffer. […] Absorbance was recorded at 60-s intervals over a 2-h period at RT. The resulting reaction progress curve was fitted to equation 4, which includes the exponential function (6). […] From the fit, GraphPad Prism software, (MA, USA) also calculates the dissociation half-time (t1/2), in min.
koff was obtained directly from the dissociation experiment and kon was previously calculated, thus finally Kd was calculated as the fraction between koff and kon.
P= Vs x t + (V0-Vs) x [1– exp ^(-k^off x ^t)] / koff (4)

OXA-48 [7] = target: T1, OXA-48; parameters: These primers amplified the blaOXA-48 gene without the signal peptide; GST (glutathione S-transferase, pGEX-6P-1) (N, cleaved yes); made in house; host or cells: E. coli BL21; method as in earlier work; settings: ref 5 Hecker et al.; cited from earlier work

T1 sequence (Q6XEC0 23-265 limits assumed): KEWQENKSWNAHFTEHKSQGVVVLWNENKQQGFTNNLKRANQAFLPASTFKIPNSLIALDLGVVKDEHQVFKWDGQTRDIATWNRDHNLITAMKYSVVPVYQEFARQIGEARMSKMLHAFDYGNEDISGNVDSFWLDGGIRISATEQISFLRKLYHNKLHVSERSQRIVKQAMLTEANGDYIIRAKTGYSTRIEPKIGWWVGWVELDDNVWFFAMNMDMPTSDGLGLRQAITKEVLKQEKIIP

CC(C)(O/N=C(\C(=O)N[C@@H]1C(=O)N2C(C(=O)[O-])=C(C[n+]3ccccc3)CS[C@H]12)c1csc(N)n1)C(=O)O [CAZ, ceftazidime]
MIC (E. coli TG1; BL alone or BL/BLI: AVI, REL, TAN, DUR 4 mg/L, VAB, XER 8 mg/L, ZID, NAC 1:1): 0.25 µg/mL (≈ 0.457 µM)
MIC (E. coli TG1; ceftazidime alone or with BLI at 4 mg/L): 0.12 µg/mL (≈ 0.22 µM)
MIC (E. coli TG1 (OXA-48); E. coli TG1 (OXA-48), ceftazidime alone or with BLI at 4 mg/L): 0.25 µg/mL (≈ 0.457 µM)
MIC (E. coli TG1 (OXA-48); Escherichia coli): 0.25 µg/mL (≈ 0.457 µM)

CC1=C[C@@H]2CN(C(=O)N2OS(=O)(=O)O)[C@@H]1C(N)=O [Durlobactam, durlobactam]
MIC (E. coli TG1; β-lactamase inhibitor alone): 0.12 µg/mL (≈ 0.433 µM)
MIC (E. coli TG1 (OXA-48); Escherichia coli): 0.12 µg/mL (≈ 0.433 µM)
effect of ertapenem/BLI on bacterial growth [1]: totally inhibited bacterial growth
MICs of inhibitor alone (range over strains) [1]: 0.12 to 2 mg/L
MIC of inhibitor alone (range over isolates) ([2]; 18 clinical isolates): 0.25 to 4 µg/mL
Ki (OXA-48 [3]): 103 ± 24 nM
k2/K (OXA-48 [4]): 142000 ± 38000 M⁻¹ s⁻¹
kinact/KI (OXA-48 [4]): 140000 M⁻¹ s⁻¹
tn (partition ratio, I:E) (OXA-48 [5]): 1
koff (OXA-48 [6]; jump dilution, read-out: koff): 9.5e-06 s⁻¹
Kd (OXA-48 [6]): 0.07 ± 0.01 nM
residence time (OXA-48 [6]): 1220 ± 213 min

NCCONC(=O)[C@@H]1CC[C@@H]2CN1C(=O)N2OS(=O)(=O)O [Nacubactam, nacubactam]
MIC (E. coli TG1; β-lactamase inhibitor alone): 2 µg/mL (≈ 6.17 µM)
MIC (E. coli TG1 (OXA-48); Escherichia coli): 2 µg/mL (≈ 6.17 µM)
effect of ertapenem/BLI on bacterial growth [1]: totally inhibited bacterial growth
MICs of inhibitor alone (range over strains) [1]: 0.12 to 2 mg/L
decrease of meropenem MIC by BLI ([2]; clinical isolates): 0–32 fold
Ki (OXA-48 [3]): > 800000 nM
kinact/KI (OXA-48 [4]): 4.88 ± 2.11 M⁻¹ s⁻¹
tn (partition ratio, I:E) (OXA-48 [5]): 70
koff (OXA-48 [6]; jump dilution, read-out: koff): 0.0002 s⁻¹
Kd (OXA-48 [6]): 41000 nM
residence time (OXA-48 [6]): 57.7 ± 7.5 min

NCCN[C@H]1CC[C@H](CC(=O)N[C@H]2Cc3cccc(C(=O)O)c3OB2O)CC1 [Taniborbactam, taniborbactam]
MIC (E. coli TG1; β-lactamase inhibitor alone): ≥ 128 µg/mL
MIC (E. coli TG1 (OXA-48); Escherichia coli): ≥ 128 µg/mL
decrease of ertapenem MIC with BLI [1]: 8–256 fold
reduction of cefepime MICs by BLI ([2]; clinical isolates): 2–512 fold
Ki (OXA-48 [3]): 75 ± 15 nM
tn (partition ratio, I:E) (OXA-48 [5]): 200
koff (OXA-48 [6]; jump dilution, read-out: koff): 0.00023 s⁻¹
residence time (OXA-48 [6]): 50.2 ± 8.2 min

O=C(O)C[C@@H]1CC[C@H](NC(=O)Cc2cccs2)B(O)O1 [Vaborbactam, vaborbactam]
MIC (E. coli TG1; β-lactamase inhibitor alone): ≥ 128 µg/mL
MIC (E. coli TG1 (OXA-48); Escherichia coli): ≥ 128 µg/mL
Ki (OXA-48 [3]): 43600 nM
tn (partition ratio, I:E) (OXA-48 [5]): >3,000
koff (OXA-48 [6]): 2.6 × 10^−4 ± .5 10^−4 s^−1
residence time (OXA-48 [6]): 44.4 ± 1.6 min

O=C(O)c1c(F)ccc2c1OB(O)[C@@H]1C[C@H]21 [Xeruborbactam, xeruborbactam]
MIC (E. coli TG1; β-lactamase inhibitor alone): 32 µg/mL (≈ 144 µM)
MIC (E. coli TG1 (OXA-48); Escherichia coli): 32 µg/mL (≈ 144 µM)
decrease of ertapenem MIC with BLI [1]: 8–256 fold
Ki (OXA-48 [3]): 18 ± 2 nM
k2/K (OXA-48 [4]): 310000 M⁻¹ s⁻¹
kinact/KI (OXA-48 [4]): 313000 M⁻¹ s⁻¹
tn (partition ratio, I:E) (OXA-48 [5]): 1
koff (OXA-48 [6]; jump dilution, read-out: koff): 0.0002 s⁻¹
Kd (OXA-48 [6]): 0.63 nM
residence time (OXA-48 [6]): 57.7 ± 9.6 min
higher inhibitory activity (Ki) for OXA-48 than avibactam (OXA-48 [7]): 96 fold
higher inhibitory activity (Ki) for OXA-48 than vaborbactam (OXA-48 [7]): 50,000 fold
